Assay results published in the NIST ThermoML archive (doi:10.1016/j.jct.2008.03.007).
Numbers after ± are expanded uncertainties.

Assays:
[1] = 101.33 kPa, Liquid, Vibrating tube method
[2] = xn = mol fraction of the nth substance listed; conditions: 101 kPa, Liquid; for mass density: Vibrating tube method

CCCCCCCC[N+](C)(CCCCCCCC)CCCCCCCC.O=S(=O)([N-]S(=O)(=O)C(F)(F)F)C(F)(F)F
[1]
Conditions | mass density [kg/m3]
298.15 K | 1109.3 ± 6.1
303.15 K | 1105.1 ± 6.1
313.15 K | 1098.3 ± 6.1

CCCCCCCC[N+](C)(CCCCCCCC)CCCCCCCC.O=S(=O)([N-]S(=O)(=O)C(F)(F)F)C(F)(F)F + CCCO
[2]
Conditions | mass density, 298.15 K [kg/m3] | mass density, 303.15 K [kg/m3] | mass density, 313.15 K [kg/m3] | speed of sound, 298.15 K [m/s]
x1 = 0.0736 | 919 ± 6 | 915 ± 6 | 907 ± 6 | 1187.7 ± 6.8
x1 = 0.1146 | 956 ± 6 | 952 ± 6 | 944 ± 6 | 1178.1 ± 6.7
x1 = 0.2152 | 1011 ± 6 | 1006 ± 6 | 999 ± 6 | 1154.7 ± 6.7
x1 = 0.3303 | 1045 ± 6 | 1041 ± 6 | 1033 ± 6 | 1127.9 ± 6.6
x1 = 0.4033 | 1059 ± 6 | 1055 ± 6 | 1047 ± 6 | 1110.9 ± 6.5
x1 = 0.524 | 1076 ± 6 | 1072 ± 6 | 1064 ± 6 | 1082.8 ± 6.5
x1 = 0.6682 | – | – | – | 1049.2 ± 6.4
x1 = 0.6882 | 1091 ± 6 | 1087 ± 6 | 1080 ± 6 | –
x1 = 0.7833 | 1098 ± 6 | 1094 ± 6 | 1087 ± 6 | 1022.4 ± 6.3
x1 = 0.8439 | 1102 ± 6 | 1097 ± 6 | 1090 ± 6 | 1008.3 ± 6.3
x1 = 0.9533 | 1107 ± 6 | 1103 ± 6 | 1096 ± 6 | 982.9 ± 6.2

CCCCCCCC[N+](C)(CCCCCCCC)CCCCCCCC.O=S(=O)([N-]S(=O)(=O)C(F)(F)F)C(F)(F)F + CCO
[2]
Conditions | mass density, 298.15 K [kg/m3] | mass density, 303.15 K [kg/m3] | mass density, 313.15 K [kg/m3] | speed of sound, 298.15 K [m/s]
x1 = 0.0484 | 896 ± 6 | 896 ± 6 | 883 ± 6 | –
x1 = 0.1731 | 1005 ± 6 | 1003 ± 6 | 994 ± 6 | 1116.1 ± 6.5
x1 = 0.2728 | 1041 ± 6 | 1036 ± 6 | 1029 ± 6 | 1098.8 ± 6.4
x1 = 0.3353 | 1055 ± 6 | 1050 ± 6 | 1044 ± 6 | 1087.9 ± 6.4
x1 = 0.4286 | 1070 ± 6 | 1063 ± 6 | 1058 ± 6 | 1071.6 ± 6.4
x1 = 0.5145 | 1080 ± 6 | 1072 ± 6 | 1068 ± 6 | 1056.6 ± 6.3
x1 = 0.6307 | 1090 ± 6 | 1082 ± 6 | 1078 ± 6 | 1036.4 ± 6.3
x1 = 0.7338 | 1097 ± 6 | 1090 ± 6 | 1085 ± 6 | 1018.4 ± 6.3
x1 = 0.7774 | 1099 ± 6 | 1092 ± 6 | 1087 ± 6 | 1010.8 ± 6.3
x1 = 0.9393 | 1107 ± 6 | – | – | –
x1 = 0.9493 | – | 1103 ± 6 | 1096 ± 6 | 980.8 ± 6.2

CCCCCCCC[N+](C)(CCCCCCCC)CCCCCCCC.O=S(=O)([N-]S(=O)(=O)C(F)(F)F)C(F)(F)F + CO
[2]
Conditions | mass density, 298.15 K [kg/m3] | mass density, 303.15 K [kg/m3] | mass density, 313.15 K [kg/m3] | speed of sound, 298.15 K [m/s]
x1 = 0.0336 | – | – | – | 1097.8 ± 6.4
x1 = 0.0781 | 958 ± 6 | 954 ± 6 | 940 ± 6 | –
x1 = 0.1291 | 999 ± 6 | 994 ± 6 | 982 ± 6 | 1085.4 ± 6.4
x1 = 0.2125 | 1037 ± 6 | 1031 ± 6 | 1022 ± 6 | 1074.5 ± 6.3
x1 = 0.35 | 1068 ± 6 | 1062 ± 6 | 1055 ± 6 | –
x1 = 0.4172 | 1077 ± 6 | 1071 ± 6 | 1064 ± 6 | 1047.9 ± 6.3
x1 = 0.5362 | 1089 ± 6 | 1083 ± 6 | 1076 ± 6 | 1032.4 ± 6.2
x1 = 0.6529 | 1097 ± 6 | 1092 ± 6 | 1085 ± 6 | –
x1 = 0.6611 | – | – | – | 1016.1 ± 6.2
x1 = 0.7084 | 1100 ± 6 | 1095 ± 6 | 1088 ± 6 | 1010 ± 6.2
x1 = 0.8522 | 1106 ± 6 | 1102 ± 6 | 1095 ± 6 | 991.2 ± 6.2
x1 = 0.9345 | 1108 ± 6 | 1104 ± 6 | 1097 ± 6 | –

CCO [ethanol]
[1]
Conditions | mass density [kg/m3]
298.15 K | 785.5 ± 6
303.15 K | 782 ± 6
313.15 K | 773.7 ± 6

CO [methanol]
[1]
Conditions | mass density [kg/m3]
298.15 K | 786 ± 6
303.15 K | 783.4 ± 6
313.15 K | 774.6 ± 6

CCCO [propan-1-ol]
[1]
Conditions | mass density [kg/m3]
298.15 K | 799.4 ± 6
303.15 K | 796.4 ± 6
313.15 K | 788.6 ± 6
